Read-outs that look alike come from different tables or passages of the source.
Biological target: T1, BTK (Homo sapiens, UniProt Q06187)
T1 construct: host or cells: NAMALWA
Test: BTK degradation in NAMALWA cells, immunoblot
Format: cell-based

T1 sequence (Q06187 whole entry): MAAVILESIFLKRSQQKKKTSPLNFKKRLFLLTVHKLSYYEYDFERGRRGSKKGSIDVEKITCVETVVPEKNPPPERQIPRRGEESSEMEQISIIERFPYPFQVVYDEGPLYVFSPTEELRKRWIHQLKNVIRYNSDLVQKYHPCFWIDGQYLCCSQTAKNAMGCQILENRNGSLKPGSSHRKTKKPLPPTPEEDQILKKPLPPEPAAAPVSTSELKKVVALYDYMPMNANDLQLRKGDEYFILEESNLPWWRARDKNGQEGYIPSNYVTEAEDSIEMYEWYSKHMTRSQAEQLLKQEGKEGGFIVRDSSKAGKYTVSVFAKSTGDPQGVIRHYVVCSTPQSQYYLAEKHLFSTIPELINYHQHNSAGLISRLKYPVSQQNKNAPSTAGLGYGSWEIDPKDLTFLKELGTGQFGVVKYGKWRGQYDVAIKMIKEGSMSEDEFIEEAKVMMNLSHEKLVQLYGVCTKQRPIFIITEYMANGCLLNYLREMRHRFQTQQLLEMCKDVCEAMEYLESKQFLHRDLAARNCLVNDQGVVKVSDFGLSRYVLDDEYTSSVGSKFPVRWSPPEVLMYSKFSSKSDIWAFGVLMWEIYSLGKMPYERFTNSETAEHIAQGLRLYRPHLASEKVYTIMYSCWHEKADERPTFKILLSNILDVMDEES

Row | SMILES | ability to degrade BTK (NAMALWA cells) | Dmax (NAMALWA cells, read-out: Dmax) | DC50 (Table 5, NAMALWA cells) | DC50 (Table 6, in NAMALWA cells line) | Dmax (Table 6, in NAMALWA cells line) | Max (Table 5, at 2.5 μM)
1 | Nc1ncnc2c1c(-c1ccc(Oc3ccccc3)cc1)nn2C1CCN(CCOCC(=O)Nc2cccc3c2C(=O)N(C2CCC(=O)NC2=O)C3=O)CC1 (stereo not drawn) [Compound 100, 2-(2-(4-(4-amino-3-(4-phenoxyphenyl)-1H-pyrazolo[3,4-d]pyrimidin-1-yl)piperidin-1-yl)ethoxy)-N-(2-(2,6-dioxopiperidin-3-yl)-1,3-dioxoisoindolin-4-yl)acetamide] | inability to degrade BTK | – | – | – | – | –
2 | Nc1ncnc2c1c(-c1ccc(Oc3ccccc3)cc1)nn2C1CCN(CCOCCOCC(=O)Nc2cccc3c2C(=O)N(C2CCC(=O)NC2=O)C3=O)CC1 (stereo not drawn) [Compound 101, 2-(2-(2-(4-(4-amino-3-(4-phenoxyphenyl)-1H-pyrazolo[3,4-d]pyrimidin-1-yl)piperidin-1-yl)ethoxy)ethoxy)-N-(2-(2,6-dioxopiperidin-3-yl)-1,3-dioxoisoindolin-4-yl)acetamide] | inability to degrade BTK | – | – | – | – | –
3 | Cc1ncsc1-c1ccc(CNC(=O)[C@@H]2C[C@@H](O)CN2C(=O)[C@H](C(C)C)N2Cc3ccccc3C2=O)c(OCCCCOCCCCN2CCC(n3nc(-c4ccc(Oc5ccccc5)cc4)c4c(N)ncnc43)CC2)c1 [Compound 127, (2S,4R)—N-(2-(4-(4-(4-(4-amino-3-(4-phenoxyphenyl)-1H-pyrazolo[3,4-d]pyrimidin-1-yl)piperidin-1-yl)butoxy)butoxy)-4-(4-methylthiazol-5-yl)benzyl)-4-hydroxy-1-((S)-3-methyl-2-(1-oxoisoindolin-2-yl)butanoyl)pyrrolidine-2-carboxamide] | – | < 50% | > 1000 nM | > 1000 nM | <50% | –
4 | Cc1ncsc1-c1ccc(CNC(=O)[C@@H]2C[C@@H](O)CN2C(=O)[C@H](C(C)C)N2Cc3ccccc3C2=O)c(OCCCOCCC(=O)N2CCC(n3nc(-c4ccc(Oc5ccccc5)cc4)c4c(N)ncnc43)CC2)c1 [Compound 128, (2S,4R)—N-(2-(3-(3-(4-(4-amino-3-(4-phenoxyphenyl)-1H-pyrazolo[3,4-d]pyrimidin-1-yl)piperidin-1-yl)-3-oxopropoxy)propoxy)-4-(4-methylthiazol-5-yl)benzyl)-4-hydroxy-1-((S)-3-methyl-2-(1-oxoisoindolin-2-yl)butanoyl)pyrrolidine-2-carboxamide] | – | < 50% | – | > 1000 nM | <50% | –
5 | Cc1ncsc1-c1ccc(CNC(=O)[C@@H]2C[C@@H](O)CN2C(=O)[C@@H](NC(=O)COCCOCCN2CCC(n3nc(-c4ccc(Oc5ccccc5)cc4)c4c(N)ncnc43)CC2)C(C)(C)C)cc1 [Compound 129, (2S,4R)-1-((S)-2-(2-(2-(2-(4-(4-amino-3-(4-phenoxyphenyl)-1H-pyrazolo[3,4-d]pyrimidin-1-yl)piperidin-1-yl)ethoxy)ethoxy)acetamido)-3,3-dimethylbutanoyl)-4-hydroxy-N-(4-(4-methylthiazol-5-yl)benzyl)pyrrolidine-2-carboxamide] | – | < 50% | > 1000 nM | > 1000 nM | <50% | 49%
6 | CN1C(=O)CCC(N2C(=O)c3ccc(NC(=O)COCCOCCN4CCC(n5nc(-c6ccc(Oc7ccccc7)cc6)c6c(N)ncnc65)CC4)cc3C2=O)C1=O (stereo not drawn) [Compound 130, 2-(2-(2-(4-(4-amino-3-(4-phenoxyphenyl)-1H-pyrazolo[3,4-d]pyrimidin-1-yl)piperidin-1-yl)ethoxy)ethoxy)-N-(2-(1-methyl-2,6-dioxopiperidin-3-yl)-1,3-dioxoisoindolin-5-yl)acetamide] | neither ibrutinib nor Compound 130 were able to induce degradation of BTK | – | – | – | – | –
